Experimental findings from publication PMC4876673, “Antitrypanosomal activity of 5-nitro-2-aminothiazole-based compounds” (European Journal of Medicinal Chemistry, 2016) are described below.

Like-named read-outs stand apart in the source and are kept apart here.

Data set [1] deals with T.b. rhodesiense, strain STIB 900 trypomastigotes. The data set can be described thus: In vitro activity against T. b. rhodesiense, strain STIB 900 trypomastigotes. The settings on record: for IC50: Trypanosoma brucei, read-out: T.b.r. IC50; for SI (T.b.r.): ratio IC50 in L6 cells/IC50 in T.b. rhodesiense. It counts as cell-based, Trypanosoma brucei rhodesiense. The method, then:
(§1) Compounds in Table 1 were screened for antiparasitic activity against three trypanosomatids: T. cruzi, T. b. rhodesiense and Leishmania donovani. The concentration of compound that inhibits parasite growth by 50% (IC50) was calculated from dose response curves for each parasite (Table 1). In addition, compounds were tested for toxicity in L6 rat skeletal myoblasts, used as host cells for T. cruzi amastigotes, in order to calculate a selectivity index for each parasite (SI = IC50L6/IC50parasite) (Table 1).
(§2) In vitro activity against T. cruzi, T. b. rhodesiense, L. donovani and cytotoxicity assessment using L6 cells (rat skeletal myoblasts) was determined using a 96-well plate format as previously described. Data were analyzed with the graphic program Softmax Pro (Molecular Devices, Sunnyvale, CA, USA), which calculated IC50 values by linear regression from the sigmoidal dose inhibition curves.

The test system of data set [2] is TbNTR overexpressing T. b. brucei. Kind of data set: microbe, parasite or virus in culture. It counts as cell-based, Trypanosoma brucei brucei. To be noted: for Ratio –tet/+tet: IC50 −tet / IC50 +tet; for IC50: Trypanosoma brucei.
Experimental: (§3) To further determine whether NTR plays a role in metabolizing the substrates within the parasite, the above subset of compounds were phenotypically screened against BSF T. b. brucei expressing wild type or elevated levels of TbNTR.
(§4) Where appropriate, induction of the TbNTR was carried out by adding tetracycline (1 μg/mL). After incubation for 3 days at 37 °C, resazurin (2.5 μg per well) was added to each well and the plates incubated for a further 8 h. The cell density of each culture was determined as described before [26] and the IC50 established.
The subject of data set [3] is T. b. brucei wild type. Kind of data set: T. brucei brucei antiproliferating assay, wild type bloodstream form. It counts as cell-based. The settings on record: Trypanosoma brucei, 72 h.
Experimental: as §3, §4
For data set [4], the system named is L. donovani axenic, strain MHOM-ET-67/L82 amastigotes. The data set can be described thus: In vitro activity against L. donovani axenic amastigotes. It counts as cell-based, Leishmania donovani. To be noted: for activity class against L. donovani: L. donovani amastigotes; for IC50: Leishmania donovani, L. donovani axenic amastigotes MHOM-ET-67/L82, read-out: L.d. IC50; for SI (L.d.): ratio IC50 in L6 cells/IC50 in L. donovani.
Experimental: (§5) In vitro activity against T. cruzi, T. b. rhodesiense, L. donovani and cytotoxicity assessment using L6 cells (rat skeletal myoblasts) was determined using a 96-well plate format as previously described [38]. Data were analyzed with the graphic program Softmax Pro (Molecular Devices, Sunnyvale, CA, USA), which calculated IC50 values by linear regression from the sigmoidal dose inhibition curves.

Data set [5] concerns T. cruzi, strain Tulahuen C4 amastigotes. The data set can be described thus: In vitro activity against T. cruzi amastigotes in infected L6 cells. Type of data set: cell-based, Trypanosoma cruzi. To be noted: for IC50: Trypanosoma cruzi, T. cruzi Tulahuen C4 amastigotes in L6 cells, read-out: T. c. IC50; for SI (T. c.): ratio IC50 in L6 cells/IC50 in T. cruzi; for Bnz/comp: ratio of T. cruzi IC50 of benznidazole to that of the compound.
Experimental: as §5

The test system of data set [6] is L6 cells (rat skeletal myoblasts). Kind of data set: Cytotoxicity in the host L6 cells. Type of data set: cell-based. To be noted: read-out: Cyt. L6 IC50. The method, then: as §1, §2
[7] abbreviates: read-out: IC50 value T.b. brucei TbNTR (+tet).
Where [8] appears, read: read-out: IC50 value T.b. brucei TbNTR (−tet).
Setting [9] is: read-out: IC50 value T.b. brucei Wild type, BSF, wild type, 3 days.
Where [10] appears, read: T.b. rhodesiense STIB 900 trypomastigotes.

Broadly, the IC50 is the concentration needed to halve the response being measured. What is called melting point is the temperature, or range, at which the solid turns liquid.

Turning to `Nc1nc(N)nc(Nc2ccc([As]3SCC(CO)S3)cc2)n1` (stereo not shown) [Melars., Melarsoprol, reference compound], in data set [1], the IC50 came to 0.009 ± 0.001 µM.

On to `CC1CS(=O)(=O)CCN1/N=C/c1ccc([N+](=O)[O-])o1` (stereo not shown) [nfx, nifurtimox, reference compound], for which the “Ratio –tet/+tet” value in data set [2] is 7.3. Also, the IC50 in data set [2] (setting [7]) was 0.869 ± 0.046 µM; in data set [2] (setting [8]), 6.36 ± 0.119 µM; in data set [3] (BSF, wild type, 3 days, read-out: IC50 value T.b. brucei Wild type), 3.98 ± 0.15 µM.

`O=C(CN1CCN(C(c2ccccc2)c2ccc(Cl)cc2)CC1)Nc1ncc([N+](=O)[O-])s1` (stereo not shown) [Compound 6, 2-(4-((4-chlorophenyl)(phenyl)methyl)piperazin-1-yl)-N-(5-nitrothiazol-2-yl)acetamide] gave a melting point of 92 to 95 °C. Also, in data set [4], the “activity class against L. donovani” value was “moderately active (between 1.0 and 6.0 μM)”; the IC50 turned out to be 3.39 µM; the “SI (L.d.)” value is 3.8. Moreover, in data set [5], the IC50 is 0.571 µM, the “SI (T. c.)” value was 23 and the Bnz/comp is 3.8. The “fold less potent against T. cruzi than the corresponding 3-nitrotriazole-based analog” value in data set [5] (comparison with analogs of ref 24) is recorded as “about 8 fold”. For the same compound, the “Ratio –tet/+tet” value in data set [2] is reported as 2.6. The IC50 in data set [2] (setting [7]) was found to be 0.636 ± 0.022 µM. Further, in data set [2] (setting [8]), the IC50 was 1.64 ± 0.069 µM. Besides, in data set [3] (setting [9]), the IC50 stood at 1.47 ± 0.104 µM. In addition, the IC50 in data set [1] (setting [10]) came out at 17.4 µM. In addition, the “SI (T.b.r.)” value in data set [1] is less than 1. In data set [6], the IC50 was 12.9 µM.

`O=C(CN1CCN(c2ccc(Cl)c(Cl)c2)CC1)Nc1ncc([N+](=O)[O-])s1` [Compound 5, 2-(4-(3,4-dichlorophenyl)piperazin-1-yl)-N-(5-nitrothiazol-2-yl)acetamide] displayed a melting point of 169 to 171 °C. In addition, in data set [4], the IC50 was 7.55 µM and the “SI (L.d.)” value is listed as 6.1. For the same compound, in data set [5], the 50% inhibitory concentration (IC50) was 1.53 µM, the “SI (T. c.)” value was 30 and the Bnz/comp was 1.4. Further, the “Ratio –tet/+tet” value in data set [2] amounted to 2.6. The IC50 in data set [2] (setting [7]) was found to be 0.747 ± 0.075 µM. The IC50 in data set [2] (setting [8]) was 1.96 ± 0.101 µM. Besides, the IC50 in data set [3] (setting [9]) was 1.36 ± 0.091 µM. In data set [1] (setting [10]), the IC50 is 10.8 µM. The “SI (T.b.r.)” value in data set [1] is given as 4.2. Further, the IC50 in data set [6] is 45.7 µM.

On to `O=C(COc1ccc(Oc2ccccc2)cc1)Nc1ncc([N+](=O)[O-])s1` [Compound 12, N-(5-nitrothiazol-2-yl)-2-(4-phenoxyphenoxy)acetamide], for which, in data set [4], the “activity class against L. donovani” value was “moderately active (between 1.0 and 6.0 μM)”. Besides, the IC50 in data set [4] turned out to be 5.4 µM; in data set [5], 32.6 µM; in data set [1] (setting [10]), 28.4 µM; in data set [6], 52.7 µM. In data set [5], the Bnz/comp is recorded as 0.1.

In the case of `O=C(CN1CCN(c2ccccn2)CC1)Nc1ncc([N+](=O)[O-])s1` [Compound 7, N-(5-nitrothiazol-2-yl)-2-(4-(pyridin-2-yl)piperazin-1-yl)acetamide], the melting point was 175 to 180 °C (dec.). For the same compound, in data set [4], the IC50 was determined as 64.9 µM and the “SI (L.d.)” value is less than 1. Besides, in data set [5], the IC50 is 4.97 µM, the “SI (T. c.)” value is 5.9 and the Bnz/comp amounted to 0.4. For the same compound, the IC50 in data set [1] (setting [10]) is 13.3 µM. For the same compound, in data set [1], the “SI (T.b.r.)” value came out at 2.2. Moreover, the IC50 in data set [6] came to 29.6 µM.

In turn, `O=C(COc1cccc(-c2ccccc2)c1)Nc1ncc([N+](=O)[O-])s1` [Compound 9, 2-([1,1′-biphenyl]-3-yloxy)-N-(5-nitrothiazol-2-yl)acetamide] registered a melting point of 148 to 150 °C. Besides, in data set [4], the “activity class against L. donovani” value was “moderately active (between 1.0 and 6.0 μM)”; the IC50 was 4.27 µM; the “SI (L.d.)” value was determined as 12. For the same compound, in data set [5], the IC50 is 22.8 µM, the “SI (T. c.)” value stood at 2.2 and the Bnz/comp is 0.1. In addition, the IC50 in data set [1] (setting [10]) worked out at 28.7 µM. Moreover, the “SI (T.b.r.)” value in data set [1] stood at 1.7. The IC50 in data set [6] was found to be 49.4 µM.

On to `O=C(COc1ccc(-c2ccccc2)cc1)Nc1ncc([N+](=O)[O-])s1` [Compound 11, 2-([1,1′-biphenyl]-4-yloxy)-N-(5-nitrothiazol-2-yl)acetamide], for which the melting point is 196 to 198 °C. Further, in data set [4], the IC50 came to 10.5 µM and the “SI (L.d.)” value was determined as 5.2. In addition, in data set [5], the concentration for half-maximal inhibition (IC50) was 18.4 µM, the “SI (T. c.)” value turned out to be 3 and the Bnz/comp amounted to 0.1. Further, in data set [2], the “Ratio –tet/+tet” value was determined as 1.5. Moreover, the IC50 in data set [2] (setting [7]) stood at 2.2 ± 0.1 µM. Also, the IC50 in data set [2] (setting [8]) was determined as 3.25 ± 0.142 µM. Moreover, the IC50 in data set [3] (setting [9]) stood at 3.75 ± 0.383 µM. The IC50 in data set [1] (setting [10]) stood at 40.8 µM. In data set [1], the “SI (T.b.r.)” value is recorded as 1.3. Further, the IC50 in data set [6] came to 54.9 µM.

Regarding `Cc1ccc(N2CCN(CC(=O)Nc3ncc([N+](=O)[O-])s3)CC2)cc1` [Compound 2, N-(5-nitrothiazol-2-yl)-2-(4-(p-tolyl)piperazin-1-yl)acetamide], the melting point was 160 to 161 °C (dec.). In addition, in data set [4], the IC50 amounted to 41.4 µM and the “SI (L.d.)” value is reported as 3. Also, in data set [5], the IC50 turned out to be 9.31 µM, the “SI (T. c.)” value was 14 and the Bnz/comp is 0.2. In data set [1] (setting [10]), the half-maximal inhibitory concentration (IC50) came out at 14.4 µM. Moreover, the “SI (T.b.r.)” value in data set [1] was determined as 8.8. The IC50 in data set [6] turned out to be 126 µM.

With `COc1ccc(N2CCN(CC(=O)Nc3ncc([N+](=O)[O-])s3)CC2)cc1` [Compound 4, 2-(4-(4-methoxyphenyl)piperazin-1-yl)-N-(5-nitrothiazol-2-yl)acetamide], the melting point was 154 to 156 °C (dec.). In addition, in data set [4], the IC50 is 68.2 µM and the “SI (L.d.)” value came to 2.1. In data set [5], the IC50 was 3.06 µM and the Bnz/comp is 0.7. Further, the IC50 in data set [1] (setting [10]) turned out to be 13.8 µM. The “SI (T.b.r.)” value in data set [1] is 10. Moreover, the IC50 in data set [6] stood at 143 µM.

The compound `O=C(COc1cccc(Oc2ccccc2)c1)Nc1ncc([N+](=O)[O-])s1` [Compound 10, N-(5-nitrothiazol-2-yl)-2-(3-phenoxyphenoxy)acetamide] displayed a melting point of 151 to 153 °C. In data set [4], the “activity class against L. donovani” value was “moderately active (between 1.0 and 6.0 μM)”; the IC50 was determined as 5.4 µM; the “SI (L.d.)” value amounted to 10. In data set [5], the IC50 came to 34.6 µM, the “SI (T. c.)” value was found to be 1.6 and the Bnz/comp was determined as 0.1. Moreover, the IC50 in data set [1] (setting [10]) came to 31 µM. Further, the “SI (T.b.r.)” value in data set [1] came out at 1.8. In addition, in data set [6], the IC50 amounted to 54.9 µM.

`O=C(CN1CCN(c2ccc(C(F)(F)F)cc2)CC1)Nc1ncc([N+](=O)[O-])s1` [Compound 3, N-(5-nitrothiazol-2-yl)-2-(4-(4-(trifluoromethyl)phenyl)piperazin-1-yl)acetamide] returned a melting point of 173 to 175 °C. In data set [4], the concentration for half-maximal inhibition (IC50) turned out to be 12.7 µM and the “SI (L.d.)” value is recorded as 3.7. For the same compound, in data set [5], the IC50 turned out to be 1.73 µM, the “SI (T. c.)” value was determined as 27 and the Bnz/comp was found to be 1.3. In addition, the “Ratio –tet/+tet” value in data set [2] amounted to 2.8. Moreover, in data set [2] (setting [7]), the IC50 worked out at 0.526 ± 0.024 µM. The IC50 in data set [2] (setting [8]) came out at 1.46 ± 0.113 µM. In addition, in data set [3] (setting [9]), the half-inhibitory concentration (IC50) came to 1.02 ± 0.045 µM. Also, the IC50 in data set [1] (setting [10]) amounted to 8.42 µM. The “SI (T.b.r.)” value in data set [1] is on record as 5.6. Further, the IC50 in data set [6] worked out at 47.1 µM.

Turning to `O=C(Nc1ncc([N+](=O)[O-])s1)c1ccc(-c2ccccc2)cc1` [Compound 8, N-(5-nitrothiazol-2-yl)-[1,1′-biphenyl]-4-carboxamide], the melting point is greater than 230 °C. Also, in data set [4], the IC50 worked out at 104 µM and the “SI (L.d.)” value was less than 1. For the same compound, in data set [5], the IC50 worked out at 2.52 µM, the “SI (T. c.)” value is listed as 2.6 and the Bnz/comp came to 0.9. For the same compound, the “Ratio –tet/+tet” value in data set [2] came out at 2.1. In addition, the half-inhibitory concentration (IC50) in data set [2] (setting [7]) amounted to 2.18 ± 0.085 µM. Also, the IC50 in data set [2] (setting [8]) was 4.59 ± 0.149 µM. Also, in data set [3] (setting [9]), the IC50 turned out to be 1.61 ± 0.396 µM. Moreover, the IC50 in data set [1] (setting [10]) was determined as 14.3 µM. The “SI (T.b.r.)” value in data set [1] is less than 1. The IC50 in data set [6] came to 6.57 µM.
